Converted amounts (≈) assume the structure as drawn. Where two headings read alike, the source gives them in different places.
Columns and labels:
[1] = test system: MRSA LAC FtsZ-mCherry; assay: Colocalization of BOFP labeling with induced FtsZ-mCherry fusion protein; format: cell-based, Staphylococcus aureus; conditions: 1 µg/mL BOFP for 5 minutes; vehicle-treated and 1-treated cells
Method: All differential interference contrast (DIC) and fluorescence microscopy experiments were conducted using an Olympus BX50 microscope equipped with an X-cite Exacte 200 W mercury lamp, a 100× Olympus UPLSAPO oil immersion objective (1.40 aperture), as well as both Chroma ET-EGFP (FITC/Cy2) and ET mCherry, Texas Red filters. Images were captured using a QImaging Retiga R3 charge-coupled device (CCD) camera and the Ocular-Version 2.0 software package (QImaging).
To visualize the impact of treating MRSA LAC FtsZ-mCherry with 1, cells were grown to log-phase in CAMH broth and diluted to an OD600 of 0.1. […] Following this treatment, 1–5 mL of each culture was centrifuged at 15,000 × g for 1 minute and washed twice with 1 mL of PBS. The resulting cell pellets were further processed and labeled with BOFP as described above for the Gram-positive bacterial strains.

[2] = biological target: E. faecalis (EfsFtsZ) (Enterococcus faecalis, UniProt O08439); assay: Fluorescence anisotropy binding of BOFP to EfsFtsZ; conditions: for Kd: 50 mM Tris-HCl (pH 7.6), 50 mM KCl, 0.1 µM BOFP
Sequence of E. faecalis (EfsFtsZ) (O08439 whole entry): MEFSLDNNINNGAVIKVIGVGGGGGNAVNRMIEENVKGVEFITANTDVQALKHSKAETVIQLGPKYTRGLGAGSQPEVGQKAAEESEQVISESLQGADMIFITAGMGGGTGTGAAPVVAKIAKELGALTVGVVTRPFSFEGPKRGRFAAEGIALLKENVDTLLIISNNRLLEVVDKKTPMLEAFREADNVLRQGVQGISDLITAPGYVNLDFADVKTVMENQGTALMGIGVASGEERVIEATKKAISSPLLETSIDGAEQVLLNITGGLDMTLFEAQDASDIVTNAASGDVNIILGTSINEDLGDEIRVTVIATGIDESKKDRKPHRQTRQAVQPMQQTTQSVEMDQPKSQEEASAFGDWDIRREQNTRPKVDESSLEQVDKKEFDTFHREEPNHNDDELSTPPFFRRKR
Method: (§1) Fluorescence anisotropy experiments were performed using an AVIV model ATF105 spectrofluorometer at 15, 25, or 37 °C. In these experiments, bandwidths were set to 4 nm in both the excitation and emission directions, with the excitation and emission wavelengths being set at 488 nm and 510 nm, respectively. BOFP (0.1 µM) was titrated with increasing concentrations (ranging from 0 to 12 µM) of FtsZ in 120 µL of buffer containing 50 mM Tris-HCl (pH 7.6) and 50 mM KCl. After each protein addition, the samples were equilibrated for 3 minutes, whereupon the fluorescence anisotropy was measured.
(§2) In this equation, r0 is the anisotropy of the protein-free compound, r∞ is the anisotropy of the compound in the presence of an infinite concentration of FtsZ, [C]tot is the total concentration of the compound, and [P]tot is the total concentration of protein with each addition. These analyses yielded the equilibrium dissociation constant (Kd) for each binding reaction.
(§3) The binding free energy (ΔG) at temperature T was derived from the corresponding Kd value determined at T using the following relationship:2 ΔG=−RTln(1/Kd)
(§4) The binding enthalpy (ΔH) and entropy (ΔS) were derived from linear fits of the ln(1/Kd) vs. 1/T plots shown in Figs. 3f and 5e using the following relationship:3 ln(1/Kd)=−ΔH/R(1/T)+ΔS/R

[3] = biological target: T1, E. faecium (EfmFtsZ) (Enterococcus faecium, UniProt Q3Y2I1); assay: Fluorescence anisotropy binding of BOFP to EfmFtsZ; conditions: for Kd: 50 mM Tris-HCl (pH 7.6), 50 mM KCl, 0.1 µM BOFP
T1 sequence (Q3Y2I1 1-413): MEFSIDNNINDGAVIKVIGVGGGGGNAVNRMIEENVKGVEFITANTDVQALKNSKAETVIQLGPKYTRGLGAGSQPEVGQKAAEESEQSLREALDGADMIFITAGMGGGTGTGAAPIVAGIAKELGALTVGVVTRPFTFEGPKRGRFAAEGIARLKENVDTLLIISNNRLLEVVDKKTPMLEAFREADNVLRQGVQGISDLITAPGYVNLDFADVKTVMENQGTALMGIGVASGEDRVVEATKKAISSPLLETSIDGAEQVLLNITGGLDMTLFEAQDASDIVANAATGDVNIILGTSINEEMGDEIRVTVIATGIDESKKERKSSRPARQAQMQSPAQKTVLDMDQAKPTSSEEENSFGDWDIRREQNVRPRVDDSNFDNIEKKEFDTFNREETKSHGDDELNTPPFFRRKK
Method: as §1, §2, §3, §4

[4] = biological target: K. pneumoniae (KpFtsZ) (Klebsiella pneumoniae, UniProt A0A0H3GRR0); assay: Fluorescence anisotropy binding of BOFP to KpFtsZ; conditions: for Kd: 50 mM Tris-HCl (pH 7.6), 50 mM KCl, 0.1 µM BOFP
Sequence of K. pneumoniae (KpFtsZ) (A0A0H3GRR0 entry or part of it): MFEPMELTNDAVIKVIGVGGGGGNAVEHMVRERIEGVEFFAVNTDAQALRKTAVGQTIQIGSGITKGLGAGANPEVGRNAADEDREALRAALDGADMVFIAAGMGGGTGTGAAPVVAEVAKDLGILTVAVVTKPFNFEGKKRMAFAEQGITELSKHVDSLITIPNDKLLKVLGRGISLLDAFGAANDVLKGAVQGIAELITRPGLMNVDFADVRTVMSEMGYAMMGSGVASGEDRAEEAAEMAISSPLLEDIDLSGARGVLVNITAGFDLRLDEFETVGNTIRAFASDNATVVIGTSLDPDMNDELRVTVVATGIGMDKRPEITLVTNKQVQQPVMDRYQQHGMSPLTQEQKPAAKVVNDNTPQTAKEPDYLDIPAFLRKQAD
Method: as §1, §2, §3, §4
In comparative control experiments, the anisotropy of 0.1 µM BODIPY FL-COOH or BOFP alone or in the presence of SaFtsZ (10 µM), SpyFtsZ (10 µM), KpFtsZ (2 µM), or PaFtsZ (2 µM) was measured at 37 °C in the same buffer described above.

[5] = biological target: T2, S. pneumoniae (SpnFtsZ) (Streptococcus pneumoniae, UniProt A0A0H2ZNE0); assay: Fluorescence anisotropy binding of BOFP to SpnFtsZ; conditions: for Kd: 50 mM Tris-HCl (pH 7.6), 50 mM KCl, 0.1 µM BOFP
T2 sequence (A0A0H2ZNE0 1-419): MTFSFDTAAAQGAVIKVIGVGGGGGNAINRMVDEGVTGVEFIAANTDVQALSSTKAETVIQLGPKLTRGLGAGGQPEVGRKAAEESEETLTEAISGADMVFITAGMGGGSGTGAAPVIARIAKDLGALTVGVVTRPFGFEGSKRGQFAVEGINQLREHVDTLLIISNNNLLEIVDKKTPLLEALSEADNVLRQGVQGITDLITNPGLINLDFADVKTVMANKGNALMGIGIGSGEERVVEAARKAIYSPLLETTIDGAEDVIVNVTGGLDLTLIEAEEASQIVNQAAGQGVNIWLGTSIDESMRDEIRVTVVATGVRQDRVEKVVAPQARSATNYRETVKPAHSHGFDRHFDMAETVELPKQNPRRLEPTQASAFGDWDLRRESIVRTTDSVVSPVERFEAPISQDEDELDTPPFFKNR
Method: as §1, §2, §3, §4

[6] = test system: S. aureus NRS705 (MRSA); assay: MIC assay by broth microdilution; format: cell-based, Staphylococcus aureus; conditions: Staphylococcus aureus; MRSA NRS705; TH broth; ≥90% growth inhibition after 18-24 hours
Method: MIC assays of 1, 3, and BOFP were conducted by standard broth microdilution in TH media. Briefly, log-phase S. aureus NRS705 (MRSA) cells were added to 96-well microtiter plates (at 5 × 10^5 CFU/mL) containing 2-fold serial dilutions of each test compound in 0.1 mL of TH broth, with each compound concentration being present in duplicate. The MIC is defined as the lowest compound concentration at which growth is ≥90% inhibited after 18-24 hours of aerobic growth.

[7] = calculated at T = 310 K (37 °C) from Kd
[8] = from linear fit of ln(1/Kd) vs. 1/T

## CC1=CC(C)=[N+]2C1=Cc1ccc(CCC(=O)OCC(Oc3ccc(F)c(C(N)=O)c3F)c3nc(-c4ccc(C(F)(F)F)cc4)c(Br)o3)n1[B-]2(F)F (stereo not shown) [BOFP]
[1]
  Colocalization of BOFP green fluorescence with FtsZ-mCherry red fluorescence: colocalizes with the red fluorescence
[2]; Kd - 15 °C, 15 °C
  Kd: 1720 ± 60 nM
[2]; Kd - 25 °C, 25 °C
  Kd: 3050 ± 250 nM
[2]; Kd - 37 °C, 37 °C
  Kd: 4620 ± 120 nM
[2]; [7]
  ΔG: -7.6 ± 0.1 kcal/mol
[2]; [8]
  ΔH: -7.9 ± 1.0 kcal/mol
  ΔS: −1.2 ± 3.3 cal/mol•K
[3]; 15 °C, read-out: Kd - 15 °C
  Kd: 2500 ± 140 nM
[3]; 25 °C, read-out: Kd - 25 °C
  Kd: 2620 ± 80 nM
[3]; 37 °C, read-out: Kd - 37 °C
  Kd: 3140 ± 220 nM
[3]; [8]
  ΔH: -1.9 ± 0.6 kcal/mol
[4]; 15 °C, read-out: Kd - 15 °C
  Kd: 420 ± 50 nM
[4]; 25 °C, read-out: Kd - 25 °C
  Kd: 580 ± 40 nM
[4]; 37 °C, read-out: Kd - 37 °C
  Kd: 820 ± 40 nM
[4]; [7]
  ΔG: -8.6 ± 0.1 kcal/mol
[4]; [8]
  ΔH: -5.4 ± 0.1 kcal/mol
[5]; 15 °C, read-out: Kd - 15 °C
  Kd: 3020 ± 300 nM
[5]; 25 °C, read-out: Kd - 25 °C
  Kd: 3490 ± 250 nM
[5]; 37 °C, read-out: Kd - 37 °C
  Kd: 3810 ± 690 nM
[5]; [7]
  ΔG: -7.7 ± 0.1 kcal/mol
[5]; [8]
  ΔH: -1.9 ± 0.3 kcal/mol
[6]
  MIC: 1 µg/mL (≈ 1.28 µM)

From publication PMC6934700, “Structure-Guided Design of a Fluorescent Probe for the Visualization of FtsZ in Clinically Important Gram-Positive and Gram-Negative Bacterial Pathogens” (Scientific Reports, 2019)
